# Experimental data taken from patent US11478466B2, “Small molecule promoting osteoblast differentiation” (Cornell University, priority 2019, dated 2022).
# How the values were obtained:
# [1] = test system: alkaline phosphatase (ALP); experiment: ALP expression staining in C2C12 cells; type: cell-based, mouse; settings: for ALP expression by staining: C2C12, 2 days, 10 μM
# Experimental: C2C12 cells were treated for 2 days with 10 μM DIPQUO or structural analogs, 1 ng/ml rhBMP4, or with inhibitors as noted in figure legends, and then fixed briefly in 70% acetone/10% formaldehyde/20% citrate. Staining was achieved using the leukocyte alkaline phosphatase kit (Sigma 86R-1KT) according to the manufacturer's instructions. Expression of ALP was confirmed and quantified by flow cytometric analysis, using an Accuri C6 flow cytometer. Briefly, control- or DIPQUO-treated C2C12 cells were detached and harvested on day 2 using PBS-based enzyme-free cell detachment solution (ThermoFisher). 2×10^5 cells were incubated on ice for 30 minutes with 10 μl APC-conjugated ALPL antibody (R&D Systems), and washed in ice-cold PBS before analysis. Live cells were gated and analyzed in CFlow Plus software and then data was converted to FlowJo to achieve publication-level resolution. For siRNA experiments, gene-specific oligonucleotides were obtained for mouse p38-alpha (Cell Signaling) and p38-beta (Santa Cruz). Signal Silence scramble siRNA control oligonucleotide was purchased from Cell Signaling. C2C12 cells at 70% confluency were transfected in 12-well plates using Lipofectamine RNAiMax reagent (Invitrogen) according to manufacturer's instructions. Transfected cells were treated 24 hours later with DMSO or 10 μM DIPQUO, and siRNA transfection was repeated after 48 hours without changing culture media. After an additional 3 days, cells were either fixed and stained for ALP expression or analyzed for ALP activity using the AttoPhos Substrate kit. Hemagglutinin and FLAG epitope-tagged MKK3 (pMT2-HA-MKK3) and MKK6 (pcDNA3-FLAG-MKK6) constructs were obtained from Addgene and transfected into C2C12 cells using Lipofectamine LTX with Plus Reagent (ThermoFisher) according to manufacturer's instructions and cell extracts analyzed for protein expression and activity as described below.
# p38 MAPK = experiment: Western blotting of p38 MAPK phosphorylation in C2C12 cells; type: cell-based, mouse; settings: C2C12, western blotting
# Experimental: (§1) Whole cell extracts were collected from C2C12 or BRITER cells in complete lysis buffer (20 mM Tris, 150 mM NaCl, 50 mM NaF, 1% NP40 substitute, HALT protease inhibitor cocktail (ThermoScientific). Proteins were resolved by electrophoresis on pre-cast 10% NuPage Bis-Tris gels (Invitrogen) and transferred to PVDF membranes (Bio-Rad). Membranes were blocked in 5% BSA-TBS-0.5% Tween-20 for 15 minutes, then incubated at 4° overnight with primary antibodies. Antibodies used were: rabbit anti-phospho-p38 MAPK (cat. no. 9211), anti-p38 MAPK XP (8690), anti-phospho-SMAD1/5 (9516), anti-SMAD1 XP (6944), anti-phospho-SMAD2/3 (8828), anti-SMAD2/3 XP (8685), anti-phospho-JNK (4668), anti-SAPK/JNK (9252), anti-phospho-Akt XP (4060), pan anti-Akt (4691), anti-phospho ERK p42/p44 (4377), anti-ERK p42/p44 (9102), anti-phospho-MKK3/6 (12280), anti-MKK3 (8535), anti-phospho-TAK1 (4531), anti-TAK1 (5206), anti-HA (3274), and anti-FLAG (14793); all from Cell Signaling); and mouse anti-p38α (cat. no. 33-1300), anti-p38β (33-8700; both ThermoFisher) and anti-β-actin (Sigma A1978). Proteins were visualized with HRP-conjugated secondary antibodies (Bio-Rad) with WestPico (ThermoFisher) or Immobilon (Millipore) chemiluminescence reagents. Images were obtained and analyzed for relative densitometric relationships on a LI-COR C-DiGit scanner using Image Studio software.
# JNK p54 = experiment: Western blotting of JNK in C2C12 cells; type: cell-based, mouse
# Experimental: as §1
# [2] = test system: alkaline phosphatase (ALP); settings: for RFU Score (10 μM): 154-analog library, C2C12, duplicate
# [3] = test system: alkaline phosphatase (ALP); experiment: cells; settings: Mus musculus; for activation at 10 µM: C2C12, 96 h
# [4] = test system: RAW 264.7 murine macrophage cell line; experiment: Osteoclast differentiation (TRAP staining, qRT-PCR) in RAW 264.7 cells; type: cell-based, mouse; settings: RAW 264.7, 4 days; DIPQUO 10 μM, RANKL 50 ng/ml
# Experimental: To address the specificity of DIPQUO for stimulating an osteogenic versus osteoclastic program, the RAW 264.7 murine macrophage cell line was assayed for osteoclast differentiation by staining for tartrate-resistant acid phosphatase (TRAP) to distinguish multinucleated osteoclasts from macrophages. […] Thus, DIPQUO appears to be primarily supportive of osteogenesis.
# The RAW 264.7 macrophage cell line was purchased from ATCC and maintained in DMEM with 10% FBS. Cells were treated with 10 μM DIPQUO or 50 ng/ml RANKL (Sigma) for 4 days. Cells were fixed in 70% acetone/10% formaldehyde/20% citrate and TRAP staining was achieved using the Leukocyte Acid Phosphatase kit (Sigma 387A-1KT).
# For quantitative RT-PCR analysis of gene expression in C2C12 cultures, cells were treated for 2 days with 10 μM DIPQUO and harvested into Trizol reagent (Invitrogen). One microgram of RNA was reverse transcribed using the VILO-RT kit (Invitrogen) to generate cDNA, which was diluted 1:25 in RNase-free H2O for qPCR with Sybr green using the Roche 480 II LightCycler and the 2^−ΔΔCT method (Livak and Schmittgen, 2001). For analysis of osteoclast gene expression, RAW 264.7 cells were treated with DMSO, 50 ng/ml RANKL, or 10 μM DIPQUO for 4 days, then harvested into Trizol reagent and processed as above. Mouse qPCR primers are as follows. Runx2: F([…]) (SEQ ID NO:1); R([…]) (SEQ ID NO:2); Dlx5: F([…]) (SEQ ID NO:3); R([…]) (SEQ ID NO:4); Osterix: F([…]) (SEQ ID NO:5); R([…]) (SEQ ID NO:6); ALP: F([…]) (SEQ ID NO:7); R([…]) (SEQ ID NO:8); Osteocalcin: F([…]) (SEQ ID NO:9); R([…]) (SEQ ID NO:10); Osteoactivin: F([…]) (SEQ ID NO:11); R([…]) (SEQ ID NO:12); CTSK: F([…]) (SEQ ID NO:13); R([…]) (SEQ ID NO:14); MMP9: F([…]) (SEQ ID NO:15); R([…]) (SEQ ID NO:16); Gapdh F([…]) (SEQ ID NO:17); R([…]) (SEQ ID NO:18). RNA-seq studies were carried out with the assistance of the Weill Cornell Genomics Core Facility, using the Illumina HiSeq4000 next-generation sequencer to generate reads from cDNA libraries generated from three biological replicates of day 2 DMSO- or DIPQUO-treated C2C12 cells. […]
molecule,measurement,setting,value
"N#CC(c1ccnc(NCCc2cccnc2)n1)c1nc2ccccc2s1 (centres unmarked) [JNK inhibitor V, reference compound]",ALP expression by staining,[1],did not lead to ALP-positive staining
same,p38 MAPK signaling (phosphorylation),p38 MAPK,activate p38 MAPK
same,JNK p54 signaling,JNK p54,suppress JNK p54
"c1ccc2c(-c3cnn4cc(-c5ccc(N6CCNCC6)cc5)cnc34)ccnc2c1 [LDN193189, reference compound]",effect of inhibitor on BMP-driven ALP expression (staining),"[1]; C2C12, co-treatment with BMP",attenuated BMP activation of ALP expression
COC(=O)c1cc2cc(Cl)ccc2[nH]c1=O [BT344],ALP expression by staining,[1],inert
same,Fluo. Z Score,"[2]; SAR of library and proprietary analogs, AttoPhos assay, C2C12",0.61 ± 0.47
same,EC50,[3]; C2C12,920 nM
"C[C@@H]1CN(Cc2ccc(F)cc2)[C@@H](C)CN1C(=O)c1cc2c(C(=O)C(=O)N(C)C)cn(C)c2cc1Cl [SCI0469, reference compound]",effect of inhibitor on DIPQUO-driven ALP expression (staining),"[1]; C2C12, co-treatment with DIPQUO",attenuated ALP expression in DIPQUO-treated cells
O=C(O)c1cc2cc(Cl)ccc2[nH]c1=O [BT345],ALP expression by staining,[1],inert
Cc1cc(C)c2[nH]c(=O)c(-c3nccn3Cc3ccccn3)cc2c1 [RU-0424465],RFU Score (10 μM),[2],427
same,activation at 10 µM,[3],5.14%
COCC1(N(C)C(=O)c2ccc(-c3[nH]cnc3-c3ccccc3)cc2)CC1 [RU-0424494],RFU Score (10 μM),[2],501
same,activation at 10 µM,[3],7.74%
"RANKL: Receptor activator of nuclear factor kB ligand, positive control to stimulate osteoclast differentiation (protein, UniProt O14788 140-317, looked up) Tumor necrosis factor ligand …: IRAEKAMVDGSWLDLAKRSKLEAQPFAHLTINATDIPSGSHKVSLSSWYHDRGWAKISNMTFSNGKLIVNQDGFYYLYANICFRHHETSGDLATEYLQLMVYVTKTSIKIPSSHTLMKGGSTKYWSGNSEFHFYSINVGGFFKLRSGEEISIEVSNPSLLDPDQDATYFGAFKVRDID",TRAP staining of multinucleated osteoclasts,[4],found to promote both TRAP staining
